# Measurements published in patent publication US9944602B2, “Piperidinone herbicides” (E. I. DU PONT DE NEMOURS AND COMPANY, priority 2014, dated 2018).
# Assays:
# Assay type in all cases: in vivo
# [1] = system: barnyardgrass (Echinochloa crus-galli); assay: Test A preemergence barnyardgrass; details: 0 to 100 scale; for Plant response rating, Barnyardgrass: 500 g ai/ha, 0 is no effect, 100 is complete control; for pest or weed control at 125 g/ha: Echinochloa crus-galli, pre-emergence, 240 h, 125 g ai/ha, 0 no effect, 100 complete control, read-out: Barnyardgrass plant response rating
# How it was run: (§1)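 Visual injury rating, 0–100 scale (0 = no effect, 100 = complete control), versus untreated controls ~10 d after treatment in greenhouse. Pre: directed soil spray onto seeded loam/sand. Post: foliar spray at 2–10 cm, 1–2 leaf stage. Solvent-surfactant formulation.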
# [2] = system: kochia (Kochia scoparia); assay: Test A preemergence kochia; details: Bassia scoparia, pre-emergence, 240 h, 0 to 100 scale, 0 no effect, 100 complete control, read-out: Kochia plant response rating; for pest or weed control at 125 g/ha: 125 g ai/ha; for pest or weed control at 500 g/ha: 500 g ai/ha
# How it was run: as §1
# [3] = system: ragweed (common ragweed, Ambrosia elatior); assay: Test A preemergence ragweed; details: Ambrosia artemisiifolia, pre-emergence, 240 h, 0 to 100 scale, 0 no effect, 100 complete control, read-out: Ragweed plant response rating; for pest or weed control at 125 g/ha: 125 g ai/ha; for pest or weed control at 500 g/ha: 500 g ai/ha
# How it was run: as §1
# [4] = system: ryegrass, Italian (Italian ryegrass, Lolium multiflorum); assay: Test A preemergence ryegrass, Italian; details: Lolium multiflorum, pre-emergence, 240 h, 0 to 100 scale, 0 no effect, 100 complete control, read-out: Ryegrass, Italian plant response rating; for pest or weed control at 125 g/ha: 125 g ai/ha; for pest or weed control at 500 g/ha: 500 g ai/ha
# How it was run: as §1
# [5] = system: foxtail, giant (giant foxtail, Setaria faberii); assay: Test A preemergence foxtail, giant; details: Setaria faberi, pre-emergence, 240 h, 0 to 100 scale, 0 no effect, 100 complete control, read-out: Foxtail, Giant plant response rating; for pest or weed control at 125 g/ha: 125 g ai/ha; for pest or weed control at 500 g/ha: 500 g ai/ha
# How it was run: as §1
# [6] = system: pigweed (Amaranthus retroflexus); assay: Test A preemergence pigweed; details: Amaranthus retroflexus, pre-emergence, 240 h, 0 to 100 scale, 0 no effect, 100 complete control, read-out: Pigweed plant response rating; for pest or weed control at 125 g/ha: 125 g ai/ha; for pest or weed control at 500 g/ha: 500 g ai/ha
# How it was run: as §1
# [7] = system: barnyardgrass (Echinochloa crus-galli); assay: Test A postemergence barnyardgrass; details: Echinochloa crus-galli, post-emergence, 240 h, 0 to 100 scale, 0 is no effect, 100 is complete control, read-out: Plant response rating, Barnyardgrass; for pest or weed control at 125 g/ha: 125 g ai/ha; for pest or weed control at 500 g/ha: 500 g ai/ha
# How it was run: as §1
# [8] = system: kochia (Kochia scoparia); assay: Test A postemergence kochia; details: Bassia scoparia, post-emergence, 240 h, 0 to 100 scale, 0 is no effect, 100 is complete control, read-out: Plant response rating, Kochia; for pest or weed control at 125 g/ha: 125 g ai/ha; for pest or weed control at 500 g/ha: 500 g ai/ha
# How it was run: as §1
# [9] = system: ragweed (common ragweed, Ambrosia elatior); assay: Test A postemergence ragweed; details: Ambrosia artemisiifolia, post-emergence, 240 h, 0 to 100 scale, 0 is no effect, 100 is complete control, read-out: Plant response rating, Ragweed; for pest or weed control at 125 g/ha: 125 g ai/ha; for pest or weed control at 500 g/ha: 500 g ai/ha
# How it was run: as §1
# [10] = system: ryegrass, Italian (Italian ryegrass, Lolium multiflorum); assay: Test A postemergence ryegrass, Italian; details: Lolium multiflorum, post-emergence, 240 h, 0 to 100 scale, 0 is no effect, 100 is complete control, read-out: Plant response rating, Ryegrass, Italian; for pest or weed control at 125 g/ha: 125 g ai/ha; for pest or weed control at 500 g/ha: 500 g ai/ha
# How it was run: as §1
# [11] = system: foxtail, giant (giant foxtail, Setaria faberii); assay: Test A postemergence foxtail, giant; details: Setaria faberi, post-emergence, 240 h, 0 to 100 scale, 0 is no effect, 100 is complete control, read-out: Plant response rating, Foxtail, Giant; for pest or weed control at 125 g/ha: 125 g ai/ha; for pest or weed control at 500 g/ha: 500 g ai/ha
# How it was run: as §1
# [12] = system: pigweed (Amaranthus retroflexus); assay: Test A postemergence pigweed; details: Amaranthus retroflexus, post-emergence, 240 h, 0 to 100 scale, 0 is no effect, 100 is complete control, read-out: Plant response rating, Pigweed; for pest or weed control at 125 g/ha: 125 g ai/ha; for pest or weed control at 500 g/ha: 500 g ai/ha
# How it was run: as §1
# [13] = system: wheat (Triticum aestivum); assay: Test A postemergence wheat; details: Triticum aestivum, post-emergence, 240 h, 0 to 100 scale, 0 is no effect, 100 is complete control, read-out: Plant response rating, Wheat; for plant injury at 125 g/ha: 125 g ai/ha; for plant injury at 500 g/ha: 500 g ai/ha
# How it was run: as §1
# [14] = system: corn (Zea mays); assay: Test A postemergence corn; details: Zea mays, post-emergence, 240 h, 0 to 100 scale, 0 is no effect, 100 is complete control; for Corn plant response rating (crop injury, 0 = no effect, 100 = complete kill) at 125 g/ha: 125 g ai/ha; for Corn plant response rating (crop injury, 0 = no effect, 100 = complete kill) at 500 g/ha: 500 g ai/ha
# How it was run: as §1
# [15] = system: blackgrass (Alopecurus myosuroides); assay: Test A postemergence blackgrass; details: Alopecurus myosuroides, post-emergence, 240 h, 0 to 100 scale, 0 is no effect, 100 is complete control, read-out: Plant response rating, Blackgrass; for pest or weed control at 125 g/ha: 125 g ai/ha; for pest or weed control at 500 g/ha: 500 g ai/ha
# How it was run: as §1
# [16] = system: galium (catchweed bedstraw, Galium aparine); assay: Test A postemergence galium; details: Galium, post-emergence, 240 h, 0 to 100 scale, 0 is no effect, 100 is complete control, read-out: Plant response rating, Galium; for pest or weed control at 125 g/ha: 125 g ai/ha; for pest or weed control at 500 g/ha: 500 g ai/ha
# How it was run: as §1
# [17] = system: rice (Oryza sativa); assay: Test B flooded paddy test rice; details: Oryza sativa, Table B, Flood, scale 0 to 100, read-out: Plant response rating; for plant injury at 250 g/ha: 250 g ai/ha; for plant injury at 1000 g/ha: 1000 g ai/ha
# How it was run: (§2)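 Test pots carrying 2-leaf-stage seedlings were flooded to 3 cm above the soil surface when treated. Compound went directly into the standing water. Plants stayed in the greenhouse at that depth for 13 to 15 d before visual comparison with controls.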
# [18] = system: sedge, umbrella (small-flower umbrella sedge, Cyperus difformis); assay: Test B flooded paddy test sedge, umbrella; details: Cyperus difformis, Table B, Flood, scale 0 to 100, read-out: Plant response rating; for pest or weed control at 250 g/ha: 250 g ai/ha; for pest or weed control at 1000 g/ha: 1000 g ai/ha
# How it was run: as §2
# [19] = system: ducksalad (Heteranthera limosa); assay: Test B flooded paddy test ducksalad; details: Heteranthera limosa, Table B, Flood, scale 0 to 100, read-out: Plant response rating; for pest or weed control at 250 g/ha: 250 g ai/ha; for pest or weed control at 1000 g/ha: 1000 g ai/ha
# How it was run: as §2
# [20] = system: barnyardgrass (Echinochloa crus-galli); assay: Test B flooded paddy test barnyardgrass; details: Echinochloa crus-galli, Table B, Flood, scale 0 to 100, read-out: Plant response rating; for pest or weed control at 250 g/ha: 250 g ai/ha; for pest or weed control at 1000 g/ha: 1000 g ai/ha
# How it was run: as §2
SMILES,"Plant response rating, Barnyardgrass [1]",pest or weed control at 125 g/ha [1] [%],pest or weed control at 125 g/ha [2] [%],pest or weed control at 500 g/ha [2] [%],pest or weed control at 125 g/ha [3] [%],pest or weed control at 500 g/ha [3] [%],pest or weed control at 125 g/ha [4] [%],pest or weed control at 500 g/ha [4] [%],pest or weed control at 125 g/ha [5] [%],pest or weed control at 500 g/ha [5] [%],pest or weed control at 125 g/ha [6] [%],pest or weed control at 500 g/ha [6] [%],pest or weed control at 125 g/ha [7] [%],pest or weed control at 500 g/ha [7] [%],pest or weed control at 125 g/ha [8] [%],pest or weed control at 500 g/ha [8] [%],pest or weed control at 125 g/ha [9] [%],pest or weed control at 500 g/ha [9] [%],pest or weed control at 125 g/ha [10] [%],pest or weed control at 500 g/ha [10] [%],also measured
"O=C1NCCC(c2ccc(C(F)(F)F)cc2)C1C(=O)Nc1ccccc1Cl (centres unmarked) [Compound 13, N-(2-chlorophenyl)-2-oxo-4-[4-(trifluoromethyl)phenyl]-3-piperidinecarboxamide]",70,40,0,40,0,0,0,0,70,90,0,0,30,90,0,0,0,0,0,0,"pest or weed control at 125 g/ha [11]: 30%; pest or weed control at 500 g/ha [11]: 90%; pest or weed control at 125 g/ha [12]: 0%; pest or weed control at 500 g/ha [12]: 0%; plant injury at 125 g/ha [13]: 0%; plant injury at 500 g/ha [13]: 0%; Corn plant response rating (crop injury, 0 = no effect, 100 = complete kill) at 125 g/ha [14]: 0%; Corn plant response rating (crop injury, 0 = no effect, 100 = complete kill) at 500 g/ha [14]: 0%; pest or weed control at 125 g/ha [15]: 0%; pest or weed control at 500 g/ha [15]: 0%; pest or weed control at 125 g/ha [16]: 0%; pest or weed control at 500 g/ha [16]: 0%; plant injury at 250 g/ha [17]: 0%; plant injury at 1000 g/ha [17]: 0%; pest or weed control at 250 g/ha [18]: 0%; pest or weed control at 1000 g/ha [18]: 0%; pest or weed control at 250 g/ha [19]: 70%; pest or weed control at 1000 g/ha [19]: 100%; pest or weed control at 250 g/ha [20]: 0%; pest or weed control at 1000 g/ha [20]: 40%"
"O=C1NCCC(c2ccc(C(F)(F)F)cc2)C1C(=O)Nc1ccccc1F (centres unmarked) [Compound 14, N-(2-fluorophenyl)-2-oxo-4-[4-(trifluoromethyl)phenyl]-3-piperidinecarboxamide]",90,50,0,20,0,0,0,0,30,90,0,0,20,90,0,0,0,0,0,0,"pest or weed control at 125 g/ha [11]: 30%; pest or weed control at 500 g/ha [11]: 90%; pest or weed control at 125 g/ha [12]: 0%; pest or weed control at 500 g/ha [12]: 0%; plant injury at 125 g/ha [13]: 0%; plant injury at 500 g/ha [13]: 0%; Corn plant response rating (crop injury, 0 = no effect, 100 = complete kill) at 125 g/ha [14]: 0%; Corn plant response rating (crop injury, 0 = no effect, 100 = complete kill) at 500 g/ha [14]: 0%; pest or weed control at 125 g/ha [15]: 0%; pest or weed control at 500 g/ha [15]: 0%; pest or weed control at 125 g/ha [16]: 0%; pest or weed control at 500 g/ha [16]: 0%; plant injury at 250 g/ha [17]: 0%; plant injury at 1000 g/ha [17]: 0%; pest or weed control at 250 g/ha [18]: 0%; pest or weed control at 1000 g/ha [18]: 0%; pest or weed control at 250 g/ha [19]: 80%; pest or weed control at 1000 g/ha [19]: 100%; pest or weed control at 250 g/ha [20]: 30%; pest or weed control at 1000 g/ha [20]: 30%"
